Values after ≈ are worked out from the molar mass of the structure shown.
Assays:
Assay type in all cases: functional
Listeria monocytogenes = test: Antibacterial activity against Listeria monocytogenes
Staphylococcus aureus = test: Antibacterial activity against Staphylococcus aureus
Escherichia coli = test: Antibacterial activity against Escherichia coli
Pseudomonas aeruginosa = test: Antibacterial activity against Pseudomonas aeruginosa
Bacillus cereus = test: Antibacterial activity against Bacillus cereus
[1] = tested on: Yersinia pseudotuberculosis; test: Antibacterial activity against Yersinia pseudotuberculosis
Enterococcus faecalis = test: Antibacterial activity against Enterococcus faecalis
Klebsiella pneumoniae = test: Antibacterial activity against Klebsiella pneumoniae
[2] = tested on: Lactobacillus acidophilus; test: Antibacterial activity against Lactobacillus acidophilus
[3] = tested on: Staphylococcus epidermidis; test: Antibacterial activity against Staphylococcus epidermidis

Compound | MIC (Listeria monocytogenes) [µg/mL] | MIC (Staphylococcus aureus) [µg/mL] | MIC (Escherichia coli) [µg/mL] | MIC (Pseudomonas aeruginosa) [µg/mL] | MIC (Bacillus cereus) [µg/mL] | MIC [1] [µg/mL] | MIC (Enterococcus faecalis) [µg/mL] | MIC (Klebsiella pneumoniae) [µg/mL] | MIC [2] [µg/mL] | MIC90 (Staphylococcus aureus) [µg/mL] | MIC90 (Escherichia coli) [µg/mL] | MIC90 [3] [µg/mL] | MIC90 (Pseudomonas aeruginosa) [µg/mL] | MIC [3] [µg/mL]
COc1c(N2C[C@H]3CCCN(C(=O)c4ccc(F)cc4)[C@H]3C2)c(F)cc2c(=O)c(C(=O)O)cn(C3CC3)c12 | ≤ 1.23 | ≤ 1.23 | < 1.23 | < 1.23 | ≤ 1.23 | < 1.23 | ≤ 1.23 | < 1.23 | < 1.23 |  |  |  |  | 
COc1c(N2C[C@H]3CCCN(Cc4ccc([N+](=O)[O-])cc4)[C@H]3C2)c(F)cc2c(=O)c(C(=O)O)cn(C3CC3)c12 | < 2.39 | < 2.39 | < 2.39 | < 2.39 |  | < 2.39 | < 2.39 | < 2.39 | < 2.39 |  |  |  |  | 
CCN1CCN(c2cc3c(cc2F)c(=O)c(C(=O)O)cn3CC)CC1 |  | 1.1 (≈ 3.17 µM) | 1.1 (≈ 3.17 µM) | 1.1 (≈ 3.17 µM) |  |  |  | 1.1 (≈ 3.17 µM) |  |  |  |  |  | 
COc1c(N2C[C@H]3CCCN(S(=O)(=O)c4ccc(Br)cc4)[C@H]3C2)c(F)cc2c(=O)c(C(=O)O)cn(C3CC3)c12 | < 2.42 | < 2.42 | < 2.42 | < 2.42 |  | < 2.42 | < 2.42 | < 2.42 | < 2.42 |  |  |  |  | 
COc1ccc(C(=O)N2CCC[C@@H]3CN(c4c(F)cc5c(=O)c(C(=O)O)cn(C6CC6)c5c4OC)C[C@@H]32)cc1 | ≤ 1.23 | ≤ 1.23 | < 1.23 | < 1.23 | ≤ 1.23 | < 1.23 | ≤ 1.23 | < 1.23 | < 1.23 |  |  |  |  | 
COc1ccc(CN2CCC[C@@H]3CN(c4c(F)cc5c(=O)c(C(=O)O)cn(C6CC6)c5c4OC)C[C@@H]32)cc1 | < 2.39 | < 2.39 | < 2.39 | < 2.39 |  | < 2.39 | < 2.39 | < 2.39 | < 2.39 |  |  |  |  | 
CCn1cc(C(=O)O)c(=O)c2cc(F)c(N3CCN(CCC(=O)Nc4ccc(/C(C)=N\OC)cc4)CC3)cc21 |  |  |  |  |  |  |  | > 50 |  |  |  |  |  | 
CC[C@H](C)[C@H](NC(=O)[C@H](CCCCN)NC(=O)[C@H](CCCCN)NC(=O)[C@H](C)NC(=O)[C@H](CC(C)C)NC(=O)[C@H](C)NC(=O)[C@H](C)NC(=O)[C@H](CC(C)C)NC(=O)[C@H](C)NC(=O)[C@H](CCCCN)NC(=O)[C@H](CC(C)C)NC(=O)[C@H](CC(N)=O)NC(=O)[C@@H](NC(=O)[C@H](CCCCN)NC(=O)CNC(=O)[C@H](CC(C)C)NC(=O)[C@H](CC(C)C)NC(=O)[C@H](Cc1ccc(O)cc1)NC(=O)CNC(=O)[C@H](C)NC(=O)CCSSCCC(=O)N1CCN(c2cc3c(cc2F)c(=O)c(C(=O)O)cn3C2CC2)CC1)[C@@H](C)CC)C(=O)N[C@@H](CC(C)C)C(N)=O |  |  |  |  |  |  |  |  |  | 0.025 (≈ 0.0093 µM) | 0.025 (≈ 0.0093 µM) | 0.025 (≈ 0.0093 µM) | 0.025 (≈ 0.0093 µM) | 
COc1ccc(S(=O)(=O)N2CCC[C@@H]3CN(c4c(F)cc5c(=O)c(C(=O)O)cn(C6CC6)c5c4OC)C[C@@H]32)cc1 | < 2.42 | < 2.42 | < 2.42 | < 2.42 |  | < 2.42 | < 2.42 | < 2.42 | < 2.42 |  |  |  |  | 
COc1c(N2C[C@H]3CCCN(S(=O)(=O)c4ccc(F)cc4)[C@H]3C2)c(F)cc2c(=O)c(C(=O)O)cn(C3CC3)c12 | < 2.42 | < 2.42 | < 2.42 | < 2.42 |  | < 2.42 | < 2.42 | < 2.42 | < 2.42 |  |  |  |  | 
C=CCn1c(SCC(=O)N2CCN(c3cc4c(cc3F)c(=O)c(C(=O)O)cn4C3CC3)CC2)nnc1-c1ccccc1 |  | 1.42 (≈ 2.41 µM) | 1.42 (≈ 2.41 µM) | 1.42 (≈ 2.41 µM) |  |  |  | 1.42 (≈ 2.41 µM) |  |  |  |  |  | 
COc1c(N2C[C@H]3CCCN(Cc4ccc(F)cc4)[C@H]3C2)c(F)cc2c(=O)c(C(=O)O)cn(C3CC3)c12 | < 2.39 | < 2.39 | < 2.39 | < 2.39 |  | < 2.39 | < 2.39 | < 2.39 | < 2.39 |  |  |  |  | 
COc1c(N2C[C@H]3CCCN(S(=O)(=O)c4ccccc4)[C@H]3C2)c(F)cc2c(=O)c(C(=O)O)cn(C3CC3)c12 | < 2.42 | < 2.42 | < 2.42 | < 2.42 |  | < 2.42 | < 2.42 | < 2.42 | < 2.42 |  |  |  |  | 
O=C(CSC(=S)N1CCN(c2cc3c(cc2F)c(=O)c(C(=O)O)cn3C2CC2)CC1)Nc1cccc(Cl)c1 |  |  | 0.024 (≈ 0.0417 µM) | 0.195 (≈ 0.339 µM) |  |  |  |  |  |  |  |  |  | 0.024 (≈ 0.0417 µM)
COc1c(N2C[C@H]3CCCN(S(=O)(=O)c4ccc([N+](=O)[O-])cc4)[C@H]3C2)c(F)cc2c(=O)c(C(=O)O)cn(C3CC3)c12 | < 2.42 | < 2.42 | < 2.42 | < 2.42 |  | < 2.42 | < 2.42 | < 2.42 | < 2.42 |  |  |  |  | 
COc1c(N2C[C@H]3CCCN(Cc4ccccc4)[C@H]3C2)c(F)cc2c(=O)c(C(=O)O)cn(C3CC3)c12 | < 2.39 | < 2.39 | < 2.39 | < 2.39 |  | < 2.39 | < 2.39 | < 2.39 | < 2.39 |  |  |  |  | 
COc1c(N2C[C@H]3CCCN(Cc4ccc(Cl)cc4)[C@H]3C2)c(F)cc2c(=O)c(C(=O)O)cn(C3CC3)c12 | < 2.39 | < 2.39 | < 2.39 | < 2.39 |  | < 2.39 | < 2.39 | < 2.39 | < 2.39 |  |  |  |  | 
COc1c(N2C[C@H]3CCCN(S(=O)(=O)c4ccc(C)cc4)[C@H]3C2)c(F)cc2c(=O)c(C(=O)O)cn(C3CC3)c12 | < 2.42 | < 2.42 | < 2.42 | < 2.42 |  | < 2.42 | < 2.42 | < 2.42 | < 2.42 |  |  |  |  | 
COc1c(N2C[C@H]3CCCN(Cc4ccc(Br)cc4)[C@H]3C2)c(F)cc2c(=O)c(C(=O)O)cn(C3CC3)c12 | < 2.39 | < 2.39 | < 2.39 | < 2.39 |  | < 2.39 | < 2.39 | < 2.39 | < 2.39 |  |  |  |  | 
CCn1c(S)nnc1CN1CCN(c2cc3c(cc2F)c(=O)c(C(=O)O)cn3CC)CC1 |  | < 0.24 | < 0.24 | < 0.24 | < 0.24 | < 0.24 | < 0.24 |  |  |  |  |  |  | 
COc1c(N2C[C@H]3CCCN(S(=O)(=O)c4ccc(Cl)cc4)[C@H]3C2)c(F)cc2c(=O)c(C(=O)O)cn(C3CC3)c12 | < 2.42 | < 2.42 | < 2.42 | < 2.42 |  | < 2.42 | < 2.42 | < 2.42 | < 2.42 |  |  |  |  | 
C=Cn1c(SCC(=O)N2CCN(c3cc4c(cc3F)c(=O)c(C(=O)O)cn4C3CC3)CC2)nnc1-c1ccccc1 |  | 1.7 (≈ 2.96 µM) | 1.7 (≈ 2.96 µM) | 1.42 (≈ 2.47 µM) |  |  |  | 1.7 (≈ 2.96 µM) |  |  |  |  |  | 
COc1c(N2C[C@H]3CCCN(Cc4ccc(C)cc4)[C@H]3C2)c(F)cc2c(=O)c(C(=O)O)cn(C3CC3)c12 | < 2.39 | < 2.39 | < 2.39 | < 2.39 |  | < 2.39 | < 2.39 | < 2.39 | < 2.39 |  |  |  |  | 
COc1c(N2C[C@@H]3CCCN[C@@H]3C2)c(F)cc2c(=O)c(C(=O)O)cn(C3CC3)c12 [MOXIFLOXACIN] | < 0.6 |  |  |  | < 0.6 |  | < 0.6 |  |  |  |  |  |  | 
